Measurements reported in patent US20130122541A1, “MICROORGANISM PRODUCTION OF HIGH-VALUE CHEMICAL PRODUCTS, AND RELATED COMPOSITIONS, METHODS AND SYSTEMS” (The Regents of the University of Colorado, priority 2010, published 2013).
Converted amounts (≈) assume the structure as drawn. Where two headings read alike, the source gives them in different places.

Legend:
[1] = test system: Yeast strains (S288C background); experiment: microbe, parasite or virus in culture; type: cell-based, Saccharomyces cerevisiae; conditions: for MIC: Saccharomyces cerevisiae
Experimental: The minimum inhibitory concentration (MIC) was determined anaerobically in a 96 well-plate format. […] A 1% (v/v) inoculum was introduced into a 5 ml culture of SD minimal media without vitamins. After the cells reached mid-exponential phase, the culture was diluted to an OD600 of 0.200. The cells were further diluted 1:5 and a 10 μL aliquot was used to inoculate each well of a 96 well plate (˜10^4 cells per well) to total volume of 100 uL. […] Plates were incubated for 72 hours at 30 C. […] Plates were sealed in biobag anaerobic chambers that contained gas generators for anaerobic conditions and incubated for 72 hours at 30 C.

[2] = test system: E. coli; experiment: microbe, parasite or virus in culture; type: cell-based; conditions: for MIC: Escherichia coli
Experimental: For MIC evaluations, the final results are expressed in chemical agent concentrations determined by analysis of the stock solution by HPLC (i.e., see Subsection IIIb).
The minimum inhibitory concentration (MIC) was determined anaerobically in a 96 well-plate format. […] Media supplements were added according to levels reported in the Supplements Table, where specified. Overnight cultures of strains were grown in triplicate in 5 mL LB (with antibiotic where appropriate). A 1% (v/v) inoculum was introduced into a 5 ml culture of M9 minimal media.

## O=C(O)CCO [3-HP, 3-hydroxypropionic acid]
[1]; S288C, SD media, supplements none (control), anaerobic
  % Increase Over Control: 0%
[1]; read-out: Average MIC Assay Result (g/L 3-HP), S288C, SD media, supplements none (control), anaerobic
  MIC: 38 g/L (≈ 422 mM)
[1]; read-out: MIC Assay Result (g/L 3-HP), strain YX-022 (BY4722, pyes2.1-Aro3 pRS425-ILV6), SD, anaerobic
  MIC: 50 g/L (≈ 555 mM)
[1]; read-out: MIC Assay Result (g/L 3-HP), strain YX-CJR-001 (BY4709, pRS426 EV, control), SD, anaerobic
  MIC: 40 g/L (≈ 444 mM)
[1]; read-out: MIC Assay Result (g/L 3-HP), strain YX-CJR-005 (BY4709, pYes2.1-Met6), SD, anaerobic
  MIC: 60 g/L (≈ 666 mM)
[1]; read-out: MIC Assay Result (g/L 3-HP), strain YX-CJR-007 (BY4709, pyes2.1-ILV6), SD, anaerobic
  MIC: 50 g/L (≈ 555 mM)
[1]; read-out: MIC Assay Result (g/L 3-HP), strain YX-CJR-008 (BY4709, pyes2.1-ILV1), SD, anaerobic
  MIC: 60 g/L (≈ 666 mM)
[1]; read-out: MIC Assay Result (g/L 3-HP), strain YX-CJR-010 (BY4709, pyes2.1-Thr1), SD, anaerobic
  MIC: 50 g/L (≈ 555 mM)
[1]; read-out: MIC Assay Result (g/L 3-HP), strain YX-CJR-011 (BY4709, pyes2.1-Ser2), SD, anaerobic
  MIC: 50 g/L (≈ 555 mM)
[1]; read-out: MIC Assay Result (g/L 3-HP), strain YX-CJR-013 (BY4709, pyes2.1-ser3), SD, anaerobic
  MIC: 50 g/L (≈ 555 mM)
[1]; read-out: MIC Assay Result (g/L 3-HP), strain YX-CJR-014 (BY4709, pyes2.1-arg2), SD, anaerobic
  MIC: 50 g/L (≈ 555 mM)
[1]; read-out: MIC Assay Result (g/L 3-HP), strain YX-CJR-015 (BY4709, pyes2.1-RNR1), SD, anaerobic
  MIC: 50 g/L (≈ 555 mM)
[1]; read-out: MIC Assay Result (g/L 3-HP), strain YX-CJR-016 (BY4709, pyes2.1-Aro3), SD, anaerobic
  MIC: 50 g/L (≈ 555 mM)
[1]; read-out: MIC Assay Result (g/L 3-HP), strain YX-CJR-018 (BY4709, pyes2.1-Tyr1), SD, anaerobic
  MIC: 50 g/L (≈ 555 mM)
[1]; read-out: MIC Assay Result (g/L 3-HP), strain YX-CJR-021 (BY4709, pYes2.1-Trp1), SD, anaerobic
  MIC: 50 g/L (≈ 555 mM)
[1]; strain YX-022 (pyes2.1-Aro3 pRS425-ILV6) vs control, anaerobic
  % Increase Over Control: 25%
[1]; strain YX-CJR-005 (pYes2.1-Met6) vs YX-CJR-001, anaerobic
  % Increase Over Control: 50%
[1]; strain YX-CJR-007 (pyes2.1-ILV6) vs YX-CJR-001, anaerobic
  % Increase Over Control: 25%
[1]; strain YX-CJR-008 (pyes2.1-ILV1) vs YX-CJR-001, anaerobic
  % Increase Over Control: 50%
[1]; strain YX-CJR-010 (pyes2.1-Thr1) vs YX-CJR-001, anaerobic
  % Increase Over Control: 25%
[1]; strain YX-CJR-011 (pyes2.1-Ser2) vs YX-CJR-001, anaerobic
  % Increase Over Control: 25%
[1]; strain YX-CJR-013 (pyes2.1-ser3) vs YX-CJR-001, anaerobic
  % Increase Over Control: 25%
[1]; strain YX-CJR-014 (pyes2.1-arg2) vs YX-CJR-001, anaerobic
  % Increase Over Control: 25%
[1]; strain YX-CJR-015 (pyes2.1-RNR1) vs YX-CJR-001, anaerobic
  % Increase Over Control: 25%
[1]; strain YX-CJR-016 (pyes2.1-Aro3) vs YX-CJR-001, anaerobic
  % Increase Over Control: 25%
[1]; strain YX-CJR-018 (pyes2.1-Tyr1) vs YX-CJR-001, anaerobic
  % Increase Over Control: 25%
[1]; strain YX-CJR-021 (pYes2.1-Trp1) vs YX-CJR-001, anaerobic
  % Increase Over Control: 25%
[2]; BW25113, EZ Rich media vs M9 control, anaerobic
  % Increase Over Control: 150%
[2]; BW25113, read-out: MIC Assay Result (g/L 3-HP), BW25113, EZ Rich media, supplements none, anaerobic
  MIC: 75 g/L (≈ 833 mM)
[2]; BW25113, read-out: MIC Assay Result (g/L 3-HP), BW25113, M9, supplements none (control), anaerobic
  MIC: 30 g/L (≈ 333 mM)
[2]; BW25113, read-out: MIC Assay Result (g/L 3-HP), anaerobic, strain BX_00002.0: BW25113 wild type, pKK223-mcs1 (control), M9 + Amp (100 μg/mL)
  MIC: 15 g/L
[2]; BW25113, read-out: MIC Assay Result (g/L 3-HP), anaerobic, strain BX_00003.0: BW25113 wild type, pBT-3 (control), M9 + Cm (20 μg/mL)
  MIC: 15 g/L
[2]; BW25113, read-out: MIC Assay Result (g/L 3-HP), anaerobic, strain BX_00118.0: BW25113 wild type, pJ251 (control), M9 + Kan (20 μg/mL)
  MIC: 15 g/L
[2]; BW25113, read-out: MIC Assay Result (g/L 3-HP), anaerobic, strain BX_00138.0: BW25113 wild type, pSmart-LC-Kan (control), M9 + Kan (20 μg/mLl)
  MIC: 25 g/L
[2]; BW25113, read-out: MIC Assay Result (g/L 3-HP), anaerobic, strain BX_00144.0: BW25113 wild type, pSmart-HC-Amp (control), M9 + Amp (100 μg/mL)
  MIC: 25 g/L
[2]; BW25113, read-out: MIC Assay Result (g/L 3-HP), anaerobic, strain BX_00319.0: BW25113 wild type, pK223-aroH, M9 + Amp 100 μg/mL + 1 mM IPTG
  MIC: 20 g/L
[2]; BW25113, read-out: MIC Assay Result (g/L 3-HP), anaerobic, strain BX_00320.0: BW25113 wild type, pK223-metE C645A, M9 + Amp 100 μg/mL + 1 mM IPTG
  MIC: 20 g/L
[2]; BW25113, read-out: MIC Assay Result (g/L 3-HP), anaerobic, strain BX_00322.0: BW25113 wild type, pJ61-speFED, M9 + Kan 20 μg/mL
  MIC: 25 g/L
[2]; BW25113, read-out: MIC Assay Result (g/L 3-HP), anaerobic, strain BX_00323.0: BW25113 wild type, pJ61-aroG, M9 + Kan 20 μg/mL
  MIC: 20 g/L
[2]; BW25113, read-out: MIC Assay Result (g/L 3-HP), anaerobic, strain BX_00324.0: BW25113 wild type, pJ61-thrA, M9 + Kan 20 μg/mL
  MIC: 20 g/L
[2]; BW25113, read-out: MIC Assay Result (g/L 3-HP), anaerobic, strain BX_00325.0: BW25113 wild type, pJ61-asd, M9 + Kan 20 μg/mL
  MIC: 20 g/L
[2]; BW25113, read-out: MIC Assay Result (g/L 3-HP), anaerobic, strain BX_00326.0: BW25113 wild type, pJ61-ilvA, M9 + Kan 20 μg/mL
  MIC: 20 g/L
[2]; BW25113, read-out: MIC Assay Result (g/L 3-HP), anaerobic, strain BX_00327.0: BW25113 wild type, pJ61-cysM, M9 + Kan 20 μg/mL
  MIC: 20 g/L
[2]; BW25113, read-out: MIC Assay Result (g/L 3-HP), anaerobic, strain BX_00357.0: BW25113 wild type, pKK223-aroH*445, M9 + Amp 100 μg/mL + 1 mM IPTG
  MIC: 20 g/L
[2]; BW25113, read-out: MIC Assay Result (g/L 3-HP), anaerobic, strain BX_00358.0: BW25113 wild type, pKK223-aroH*447, M9 + Amp 100 μg/mL + 1 mM IPTG
  MIC: 20 g/L
[2]; BW25113, read-out: MIC Assay Result (g/L 3-HP), anaerobic, strain BX_00359.0: BW25113 wild type, pKK223-aroH*457, M9 + Amp 100 μg/mL + 1 mM IPTG
  MIC: 20 g/L
[2]; BW25113, read-out: MIC Assay Result (g/L 3-HP), anaerobic, strain BX_00360.0: BW25113 wild type, pACYC177 (Kan only)-cynTS, M9 + Kan 20 μg/mL
  MIC: 20 g/L
[2]; BW25113, read-out: MIC Assay Result (g/L 3-HP), anaerobic, strain BX_00362.0: BW25113 wild type, pACYC177 (Kan only)-aroH, M9 + Kan 20 μg/mL + 1 mM IPTG
  MIC: 20 g/L
[2]; BW25113, read-out: MIC Assay Result (g/L 3-HP), anaerobic, strain BX_00363.0: BW25113 wild type, pACYC177 (Kan only)-speB, M9 + Kan 20 μg/mL
  MIC: 20 g/L
[2]; BW25113, read-out: MIC Assay Result (g/L 3-HP), anaerobic, strain BX_00364.0: BW25113 wild type, pACYC177 (Kan only)-metE, M9 + Kan 20 μg/mL + 1 mM IPTG
  MIC: 20 g/L
[2]; BW25113, read-out: MIC Assay Result (g/L 3-HP), anaerobic, strain BX_00365.0: BW25113 wild type, pACYC177 (Kan only)-metC, M9 + Kan 20 μg/mL
  MIC: 20 g/L
[2]; BW25113, read-out: MIC Assay Result (g/L 3-HP), anaerobic, strain BX_00368.0: BW25113 wild type, pBT-3-cynTS, M9 + Cm (20 μg/mL)
  MIC: 20 g/L
